# Results: PMC8536124 (International Journal of Molecular Sciences, 2021)
# Where two headings read alike, the source gives them in different places.
# Assays:
# [1] = tested on: CNS cancer; experiment: cells; format: cell-based
# Description: (§1) The experimental data allow the assessment of the cytostatic effect, indicated by growth inhibition values ranging between 0 and 100, as well as of the cytotoxic effect, indicated by negative values.
# (§2) The mean GI50 (molar concentration of the compound that inhibits 50% net cell growth), TGI (molar concentration of the compound leading to the total inhibition), and LC50 (molar concentration of the compound leading to 50% net cell death (presented in negative logarithm)) values across each cell line are shown in Table 2.
# (§3) The selectivity index (SI), calculated as the ratio between the full panel MG_MID60 (μM) of compounds 4, 6, and 9 by their respective subpanels MG_MID of the cell line (μM), was introduced as a quantification tool for the selectivity of each compound in terms of anticancer effect (Table 3).
# (§4) Primary anticancer assays were performed according to the NCI protocol, as described elsewhere (see e.g., http://dtp.nci.nih.gov accessed on 1 November 2018). The compounds were added at a single concentration, and the cell cultures were incubated for 48 h. The end point determinations were made with a protein-binding dye, sulforhodamine B (SRB). […] The percentage of growth was evaluated spectrophotometrically versus controls not treated with test agents after 48 h exposure and using SRB protein assay to estimate cell viability or growth. Three antitumor activity dose-response parameters were calculated for each cell line. Furthermore, mean graph midpoints (MG_MID) were calculated for each of the parameters, giving an average activity parameter over all cell lines for the tested compound. For the MG_MID calculation, insensitive cell lines were included with the highest concentration tested.
# [2] = tested on: MDA-MB-468; experiment: NCI-60 screening (SRB); format: cell-based, human; settings: five-dose
# [3] = tested on: SF-268; experiment: NCI-60 screening (SRB); format: cell-based, human; settings: five-dose
# [4] = tested on: MOLT-4; experiment: NCI-60 screening (SRB); format: cell-based, human; settings: five-dose
# [5] = tested on: U251; experiment: NCI-60 screening (SRB); format: cell-based, human; settings: U251, five-dose
# [6] = tested on: ACHN; experiment: NCI-60 screening (SRB); format: cell-based, human; settings: five-dose
# [7] = tested on: SK-MEL-28; experiment: NCI-60 screening (SRB); format: cell-based, human; settings: five-dose
# [8] = tested on: SK-MEL-2; experiment: NCI-60 screening (SRB); format: cell-based, human; settings: five-dose
# [9] = tested on: HCT-116; experiment: NCI-60 screening (SRB); format: cell-based, human; settings: five-dose
# [10] = tested on: MDA-MB-435; experiment: NCI-60 screening (SRB); format: cell-based, human; settings: five-dose
# [11] = tested on: Renal Cancer; experiment: NCI-60 screening (SRB), subpanel; format: cell-based
# Description: as §1, §2, §3, §4
# [12] = tested on: Leukemia; experiment: NCI-60 screening (SRB), subpanel; format: cell-based
# Description: as §1, §2, §3, §4
# [13] = tested on: Breast cancer; experiment: NCI-60 screening (SRB), subpanel; format: cell-based
# Description: as §1, §2, §3, §4
# [14] = tested on: Ovarian cancer; experiment: NCI-60 screening (SRB), subpanel; format: cell-based
# Description: as §1, §2, §3, §4
# [15] = tested on: Prostate cancer; experiment: NCI-60 screening (SRB), subpanel; format: cell-based
# Description: as §1, §2, §3, §4
# [16] = tested on: Melanoma; experiment: NCI-60 screening (SRB), subpanel; format: cell-based
# Description: as §1, §2, §3, §4
# [17] = tested on: Colon Cancer; experiment: NCI-60 screening (SRB), subpanel; format: cell-based
# Description: as §1, §2, §3, §4
# [18] = tested on: NSC lung cancer; experiment: NCI-60 screening (SRB), subpanel; format: cell-based
# Description: as §1, §2, §3, §4
# [19] = tested on: SW-620; experiment: NCI-60 screening (SRB); format: cell-based, human; settings: five-dose
# [20] = tested on: 786-0; experiment: NCI-60 screening (SRB); format: cell-based, human; settings: five-dose
# [21] = tested on: MDA-MB-31/ATCC; experiment: NCI-60 screening (SRB); format: cell-based, human; settings: five-dose
# [22] = tested on: NCI-60 cancer cell line panel; experiment: NCI-60 screening (SRB), full panel; format: cell-based, human; settings: for activity at 10 µM: 60 cell lines, 48 h
# Description: as §1, §2, §3, §4
# [23] = tested on: HCC-2998; experiment: NCI-60 screening (SRB); format: cell-based, human; settings: five-dose
# [24] = tested on: PC-3; experiment: NCI-60 screening (SRB); format: cell-based, human; settings: five-dose
# [25] = Homo sapiens, read-out: LC50 (the source's name)
compound,measurement,setting,value
"CCN1CCN(C(=O)[C@]23CC[C@@H](C)[C@H](C)[C@H]2C2=CC[C@@H]4[C@@]5(C)C/C(=C/c6cccnc6)C(=O)C(C)(C)[C@@H]5CC[C@@]4(C)[C@]2(C)CC3)CC1 [Compound 9, N-(2-{3-Pyridinylidene}-3-oxoursan-12-en-28-oyl)-ethylpiperazine]",TGI MG_MID,"[1]; CNS cancer subpanel, five-dose",4.41 µM
same,SI (TGI),"[1]; CNS cancer, MG_MID60/subpanel MG_MID",1.20
same,GI50,"[1]; Homo sapiens, CNS cancer subpanel, five-dose, read-out: GI50 MG_MID",1.71 µM
same,CC50,"[1]; Homo sapiens, CNS cancer subpanel, five-dose, read-out: LC50 MG_MID",13.6 µM
same,GI50,[2]; Homo sapiens,1.65 µM
same,CC50,[2]; [25],7.1 µM
same,TGI,[2],3.43 µM
same,GI50,[3]; Homo sapiens,1.77 µM
same,CC50,[3]; [25],9.15 µM
same,TGI,[3],4.02 µM
same,GI50,[4]; Homo sapiens,2.63 µM
same,CC50,[4]; [25],> 100 µM
same,TGI,[4],7.44 µM
same,GI50,"[5]; Homo sapiens, U-251",1.82 µM
same,TGI,[5],3.67 µM
same,GI50,[6]; Homo sapiens,2.46 µM
same,LC50,[6]; Homo sapiens,22.6 µM
same,TGI,[6],6.45 µM
same,GI50,[7]; Homo sapiens,1.74 µM
same,CC50,[7]; [25],5.69 µM
same,TGI,[7],3.15 µM
same,GI50,[8]; Homo sapiens,2.12 µM
same,CC50,[8]; [25],65.5 µM
same,TGI,[8],4.76 µM
same,GI50,[9]; Homo sapiens,1.69 µM
same,CC50,[9]; [25],7.43 µM
same,TGI,[9],3.55 µM
same,GI50,[10]; Homo sapiens,1.7 µM
same,CC50,[10]; [25],7.18 µM
same,TGI,[10],3.49 µM
same,GI50,"[11]; Homo sapiens, Renal cancer subpanel, five-dose, read-out: GI50 MG_MID",1.97 µM
same,LC50 (50% net cell kill),"[11]; Homo sapiens, Renal cancer subpanel, five-dose, read-out: LC50 MG_MID",21.3 µM
same,SI (TGI),"[11]; Renal Cancer, MG_MID60/subpanel MG_MID",0.95
same,TGI MG_MID,"[11]; Renal cancer subpanel, five-dose",5.57 µM
same,CC50,"[12]; Homo sapiens, Leukemia subpanel, five-dose, read-out: LC50 MG_MID",> 100 µM
same,TGI MG_MID,"[12]; Leukemia subpanel, five-dose",7.09 µM
same,SI (TGI),"[12]; Leukemia, MG_MID60/subpanel MG_MID",0.75
same,TGI MG_MID,"[13]; Breast cancer subpanel, five-dose",5.37 µM
same,SI (TGI),"[13]; Breast cancer, MG_MID60/subpanel MG_MID",0.98
same,GI50,"[13]; Homo sapiens, Breast cancer subpanel, five-dose, read-out: GI50 MG_MID",1.91 µM
same,CC50,"[13]; Homo sapiens, Breast cancer subpanel, five-dose, read-out: LC50 MG_MID",36.9 µM
same,GI50,"[14]; Homo sapiens, Ovarian cancer subpanel, five-dose, read-out: GI50 MG_MID",2.04 µM
same,CC50,"[14]; Homo sapiens, Ovarian cancer subpanel, five-dose, read-out: LC50 MG_MID",36.2 µM
same,SI (TGI),"[14]; Ovarian Cancer, MG_MID60/subpanel MG_MID",1.02
same,TGI MG_MID,"[14]; Ovarian cancer subpanel, five-dose",5.16 µM
same,GI50,"[15]; Homo sapiens, Prostate cancer subpanel, five-dose, read-out: GI50 MG_MID",1.79 µM
same,CC50,"[15]; Homo sapiens, Prostate cancer subpanel, five-dose, read-out: LC50 MG_MID",9.23 µM
same,SI (TGI),"[15]; Prostate cancer, MG_MID60/subpanel MG_MID",0.89
same,GI50,"[16]; Homo sapiens, Melanoma subpanel, five-dose, read-out: GI50 MG_MID",1.56 µM
same,CC50,"[16]; Homo sapiens, Melanoma subpanel, five-dose, read-out: LC50 MG_MID",25.1 µM
same,TGI MG_MID,"[16]; Melanoma subpanel, five-dose",3.66 µM
same,SI (TGI),"[16]; Melanoma, MG_MID60/subpanel MG_MID",1.45
same,TGI MG_MID,"[17]; Colon Cancer subpanel, five-dose",4.00 µM
same,SI (TGI),"[17]; Colon Cancer, MG_MID60/subpanel MG_MID",1.32
same,GI50,"[17]; Homo sapiens, Colon Cancer subpanel, five-dose, read-out: GI50 MG_MID",1.81 µM
same,CC50,"[17]; Homo sapiens, Colon Cancer subpanel, five-dose, read-out: LC50 MG_MID",33.7 µM
same,GI50,"[18]; Homo sapiens, NSC lung cancer subpanel, five-dose, read-out: GI50 MG_MID",2.12 µM
same,CC50,"[18]; Homo sapiens, NSC lung cancer subpanel, five-dose, read-out: LC50 MG_MID",47.1 µM
same,TGI MG_MID,"[18]; NSC lung cancer subpanel, five-dose",6.81 µM
same,SI (TGI),"[18]; NSCL cancer, MG_MID60/subpanel MG_MID",0.78
same,GI50,[19]; Homo sapiens,1.9 µM
same,CC50,[19]; [25],9.05 µM
same,TGI,[19],4.14 µM
same,GI50,[20]; Homo sapiens,1.98 µM
same,TGI,[20],4.37 µM
same,GI50,[21]; Homo sapiens,1.75 µM
same,CC50,[21]; [25],7.39 µM
same,TGI,[21],3.59 µM
same,Positive Cytostatic Effect (cell lines with percent growth 0 to 50 / total),[22]; 1 dose 10 µM,33/59
same,Positive Cytotoxic Effect (cell lines with percent growth <0 / total),[22]; 1 dose 10 µM,5/59
same,GI50,"[22]; Homo sapiens, five-dose, bound, read-out: GI50 against all human tumor cells",< 4 µM
same,GI50,"[22]; Homo sapiens, mean graph midpoint, full panel, five-dose, read-out: GI50 MG_MID60",1.93 µM
same,CC50,"[22]; Homo sapiens, mean graph midpoint, full panel, five-dose, read-out: LC50 MG_MID60",38 µM
same,activity at 10 µM,"[22]; Homo sapiens, 1 dose 10 µM, read-out: Mean Growth, %",25.3%
same,activity at 10 µM,"[22]; Homo sapiens, 1 dose 10 µM, read-out: Range of Growth, %",-38.2 to 65.7%
same,TGI MG_MID60,"[22]; mean graph midpoint, full panel, five-dose",5.29 µM
same,selectivity class,[22]; toward some individual cell lines at the LC50 level,moderate selectivity (Ratios between 3 and 6 are indicators of moderate selectivity)
same,GI50,[23]; Homo sapiens,1.55 µM
same,CC50,[23]; [25],5.79 µM
same,TGI,[23],3.00 µM
same,GI50,[24]; Homo sapiens,1.49 µM
same,CC50,[24]; [25],9.92 µM
same,TGI,[24],3.85 µM
